# Test results published in patent publication US20210309619A1, “ISOXAZOLIN-5-ONE DERIVATIVES AND HERBICIDES CONTAINING THE SAME AS ACTIVE INGREDIENTS” (HOKKO CHEMICAL INDUSTRY CO., LTD., priority 2018, published 2021).
# Experiments:
# Format in all cases: in vivo
# Echinochloa crus-galli [1] = test: Herbicidal effect test by treatment of rice paddy soil (Test Example 1); details: 120 g/10 a, treated immediately after seeding, 14 days after treatment
# Method: (§1) Wagner pots with an area of 1/10000 ares were filled with a paddy soil, and a compound fertilizer (N:P:K=17:17:17) was mixed after water was added, followed by soil puddling. Then, Echinochloa crus-galli, broad leaf weeds (Lindernia pyxidaria and Monochoria vaginalis) and Scirpus juncoides, 30 seeds each, were sown in a depth of 0 to 1 cm. Water was poured immediately after seeding, and the water depth was kept at about 3 cm. A subsequent management was conducted in a glass greenhouse. Immediately after that, emulsions prepared using the compounds in Table 3 below according to Formulation Example 5 were diluted with water, and a certain amount of the water-diluted agent solutions were dropped. A converted amount of the applied active ingredient corresponded to 120 g per 10 ares.
# (§2) This test was conducted in a double system per one agent solution concentration area, and the herbicidal rates (%) were determined by the following equation (Math. 1) 14 days after the treatment with the agents.
# (§3) Herbicidal Rate (%)={1−(Average Dry Weight (g) of Plant of Treated Area)/(Average Dry Weight (g) of Plant of Untreated Area)}×100 [Math. 1]
# Lindernia pyxidaria [2] = test: as above; details: 120 g/10 a, treated immediately after seeding, 14 days after treatment
# Method: as §1, §2, §3
# Monochoria vaginalis [3] = test: as above; details: 120 g/10 a, treated immediately after seeding, 14 days after treatment
# Method: as §1, §2, §3
# Scirpus juncoides [4] = test: as above; details: 120 g/10 a, treated immediately after seeding, 14 days after treatment
# Method: as §1, §2, §3
# Echinochloa crus-galli [5] = test: Herbicidal effect test by treatment during growing period in paddy rice cultivation (Test Example 2); details: 120 g/10 a, treated seven days after seeding, 14 days after treatment
# Description: as §3
# as §1, with “after addition of water,” for “after water was added,”, “greenhouse. Emulsions” for “greenhouse. Immediately after that, emulsions”, “Table 4” for “Table 3”, “with water seven days after seeding,” for “with water,”, “ares. The test was conducted in a double system per one agent solution concentration area, and the herbicidal rates (%) were determined by the equation (Math. 1) 14 days after the treatment with the agents. In this regard, the compound numbers in Table 4 are the same as those in Table 1 and Table 2 above.” for “ares.”
# Lindernia pyxidaria [6] = test: as above; details: 120 g/10 a, treated seven days after seeding, 14 days after treatment
# Description: as §3
# as §1, with “after addition of water,” for “after water was added,”, “greenhouse. Emulsions” for “greenhouse. Immediately after that, emulsions”, “Table 4” for “Table 3”, “with water seven days after seeding,” for “with water,”, “ares. The test was conducted in a double system per one agent solution concentration area, and the herbicidal rates (%) were determined by the equation (Math. 1) 14 days after the treatment with the agents. In this regard, the compound numbers in Table 4 are the same as those in Table 1 and Table 2 above.” for “ares.”
# Monochoria vaginalis [7] = test: as above; details: 120 g/10 a, treated seven days after seeding, 14 days after treatment
# Description: as §3
# as §1, with “after addition of water,” for “after water was added,”, “greenhouse. Emulsions” for “greenhouse. Immediately after that, emulsions”, “Table 4” for “Table 3”, “with water seven days after seeding,” for “with water,”, “ares. The test was conducted in a double system per one agent solution concentration area, and the herbicidal rates (%) were determined by the equation (Math. 1) 14 days after the treatment with the agents. In this regard, the compound numbers in Table 4 are the same as those in Table 1 and Table 2 above.” for “ares.”
# Scirpus juncoides [8] = test: as above; details: 120 g/10 a, treated seven days after seeding, 14 days after treatment
# Description: as §3
# as §1, with “after addition of water,” for “after water was added,”, “greenhouse. Emulsions” for “greenhouse. Immediately after that, emulsions”, “Table 4” for “Table 3”, “with water seven days after seeding,” for “with water,”, “ares. The test was conducted in a double system per one agent solution concentration area, and the herbicidal rates (%) were determined by the equation (Math. 1) 14 days after the treatment with the agents. In this regard, the compound numbers in Table 4 are the same as those in Table 1 and Table 2 above.” for “ares.”
# Amaranthus viridis [9] = test: Herbicidal effect test by treatment of dry field farming soil (Test Example 3); details: 120 g/10 a, sprayed one day after seeding, 14 days after treatment
# Description: (§4) Herbicidal Rate (%)={1−(Average Dry Weight (g) of Plant of Treated Area)/(Average Dry Weight (g) of Plant of Untreated Area)}×100 [Math. 1] Pots with a size of 36 cm^2 were filled with a dry field farming soil (alluvium). The soil of the top layer of 1 cm and seeds of weeds, namely southern crabgrass, Echinochloa crus-galli, Chenopodium album and Amaranthus viridis, 20 seeds each, were evenly mixed, and the top layer was gently pressed. Emulsions prepared using the compounds in Table 5 below according to Formulation Example 5 were diluted with water one day after seeding, and the water-diluted agent solutions were sprayed to the soil surfaces at a ratio of 100 liters per 10 ares. A converted amount of the applied active ingredient corresponded to 120 g per 10 ares. The herbicidal effects were evaluated by the same standard as that in Test Example 1, 14 days after the treatment with the agents. In this regard, the compound numbers in Table 5 are the same as those in Table 1 and Table 2 above.
# Chenopodium album [10] = test: as above; details: 120 g/10 a, sprayed one day after seeding, 14 days after treatment
# Description: as §4
# Echinochloa crus-galli [11] = test: as above; details: 120 g/10 a, sprayed one day after seeding, 14 days after treatment
# Description: as §4
# southern crabgrass [12] = test: as above; details: 120 g/10 a, sprayed one day after seeding, 14 days after treatment
# Description: as §4
# Amaranthus viridis [13] = test: Herbicidal effect test by treatment of stem and leaf in dry field farming (Test Example 4); details: 120 g/10 a, stem and leaf treatment seven days after seeding, 14 days after treatment
# Description: as §4, with “Table 6” for “Table 5”, “water seven days” for “water one day”
# Chenopodium album [14] = test: as above; details: 120 g/10 a, stem and leaf treatment seven days after seeding, 14 days after treatment
# Description: as §4, with “Table 6” for “Table 5”, “water seven days” for “water one day”
# Echinochloa crus-galli [15] = test: as above; details: 120 g/10 a, stem and leaf treatment seven days after seeding, 14 days after treatment
# Description: as §4, with “Table 6” for “Table 5”, “water seven days” for “water one day”
# southern crabgrass [16] = test: as above; details: 120 g/10 a, stem and leaf treatment seven days after seeding, 14 days after treatment
# Description: as §4, with “Table 6” for “Table 5”, “water seven days” for “water one day”
smiles,measurement,setting,value
COC1CCCC1n1oc(=O)c(Cc2ccccc2N(C(=O)OCC(C)C)S(=O)(=O)C(F)(F)F)c1C (stereo not shown) [Compound 248],"Herbicidal rate, Echinochloa crus-galli",Echinochloa crus-galli [1],100%
same,"Herbicidal rate, Lindernia pyxidaria",Lindernia pyxidaria [2],100%
same,"Herbicidal rate, Monochoria vaginalis",Monochoria vaginalis [3],100%
same,"Herbicidal rate, Scirpus juncoides",Scirpus juncoides [4],100%
same,"Herbicidal rate, Echinochloa crus-galli",Echinochloa crus-galli [5],100%
same,"Herbicidal rate, Lindernia pyxidaria",Lindernia pyxidaria [6],80%
same,"Herbicidal rate, Monochoria vaginalis",Monochoria vaginalis [7],90%
same,"Herbicidal rate, Scirpus juncoides",Scirpus juncoides [8],90%
same,"Herbicidal rate, Amaranthus viridis",Amaranthus viridis [9],60%
same,"Herbicidal rate, Chenopodium album",Chenopodium album [10],60%
same,"Herbicidal rate, Echinochloa crus-galli",Echinochloa crus-galli [11],90%
same,"Herbicidal rate, southern crabgrass",southern crabgrass [12],90%
same,"Herbicidal rate, Amaranthus viridis",Amaranthus viridis [13],90%
same,"Herbicidal rate, Chenopodium album",Chenopodium album [14],90%
same,"Herbicidal rate, Echinochloa crus-galli",Echinochloa crus-galli [15],90%
same,"Herbicidal rate, southern crabgrass",southern crabgrass [16],80%
